Patent publication US20230295152A1 (SENDA BIOSCIENCES, INC., priority 2019, published 2023)

Legend:
AHR = target: T1, AHR (Homo sapiens, UniProt P35869); assay: DRE-Luciferase Reporter Assay, HepG2 AhR-Lucia reporter cells; assay type: cell-based; conditions: with AHR activating ligand at EC50, read-out: HepG2-Luc IC50
T1 construct: other cell line with a DRE-luciferase reporter stably transfected; endogenous in cells; host or cells: HepG2 AhR-Lucia reporter cells
T1 sequence (P35869 11-848): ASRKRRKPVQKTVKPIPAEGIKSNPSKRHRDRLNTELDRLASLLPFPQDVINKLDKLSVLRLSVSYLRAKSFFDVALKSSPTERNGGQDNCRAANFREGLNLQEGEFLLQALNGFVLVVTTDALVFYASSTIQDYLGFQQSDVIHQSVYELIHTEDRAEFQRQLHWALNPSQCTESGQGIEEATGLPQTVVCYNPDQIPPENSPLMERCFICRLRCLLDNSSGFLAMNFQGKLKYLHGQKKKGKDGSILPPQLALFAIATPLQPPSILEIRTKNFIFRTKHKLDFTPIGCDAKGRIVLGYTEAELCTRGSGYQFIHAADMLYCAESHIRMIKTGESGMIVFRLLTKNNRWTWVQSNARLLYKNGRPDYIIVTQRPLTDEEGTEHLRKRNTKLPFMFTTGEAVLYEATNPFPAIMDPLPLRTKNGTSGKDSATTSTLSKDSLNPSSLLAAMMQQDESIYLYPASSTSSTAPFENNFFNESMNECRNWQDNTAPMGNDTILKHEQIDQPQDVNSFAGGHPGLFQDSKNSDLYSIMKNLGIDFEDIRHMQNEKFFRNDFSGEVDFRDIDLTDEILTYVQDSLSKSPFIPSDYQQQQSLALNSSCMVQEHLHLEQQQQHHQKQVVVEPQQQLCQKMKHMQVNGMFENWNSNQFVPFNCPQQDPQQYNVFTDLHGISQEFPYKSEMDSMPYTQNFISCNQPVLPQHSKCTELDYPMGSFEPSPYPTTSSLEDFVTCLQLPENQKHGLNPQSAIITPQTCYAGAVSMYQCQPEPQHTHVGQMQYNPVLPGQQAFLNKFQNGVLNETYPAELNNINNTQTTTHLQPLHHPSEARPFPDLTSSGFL
Summary of the method: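 DRE-luciferase reporter cells (e.g. HepG2 AhR-Lucia, 20000 cells) treated with antagonist log dilutions from 100 uM, then an AHR agonist (e.g. TCDD, kynurenine, ITE, FICZ) at its EC50 added after 1 hr. Secreted luciferase measured after 24 or 48 h (QUANTI-Luc); IC50 = concentration halving luciferase activity.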

[1] = Hepatocyte Stability Assay, rat; assay type: in vitro ADME; conditions: for Rat hepatocyte clearance: rat hepatocytes; for all read-outs here: tested at 1 µM
Procedure: • Preparation of working solutions: 10 mM stock solutions of test compound and positive control were prepared in DMSO. In separate conical tubes, the 10 mM solution of test compound and the positive control were diluted to 100 μM by combining 198 μL of 50% acetonitrile/50% water and 2 μL of 10 mM stock.
Preparation of Hepatocytes: Incubation medium (William's E Medium supplemented with GlutaMAX) and hepatocyte thawing medium were placed in a 37° C. water bath and allowed warming for at least 15 minutes prior to use. A vial of cryopreserved hepatocytes was transferred from storage, ensuring that vials remained at cryogenic temperatures until thawing process ensued. Cells were thawed by placing the vial in a 37° C. water bath and gently shaking the vials for 2 minutes. After thawing was completed, vial was sprayed with 70% ethanol and transferred to a biosafety cabinet. Wide-bore pipette tip were used to transfer hepatocytes into 50 mL conical tube containing thawing medium. The 50 mL conical tube were placed into a centrifuge and spun at 100 g for 10 minutes. Upon completion of spin, thawing medium was aspirated and resuspended hepatocytes in enough incubation medium to yield ˜1.5×10^6 cells/mL. Using an AO/PI Staining, cells were counted and the viable cell density was determined. Cells with poor viability (<75% viability) were determined to be not acceptable for use. Cells were diluted with incubation medium to a working cell density of 0.5×10^6 viable cells/mL.
Procedure for Stability Determination: 198 μL of hepatocytes were pipetted into each wells of a 96-well non-coated plate. The plate was placed in the incubator to allow the hepatocytes to warm for 10 minutes. 2 μL of the 100 μM test compound or positive control solutions were pipetted into respective wells of the 96-well non-coated plate to start the reaction. The plate was returned to the incubator for the designed time points. Well contents was transferred in 25 μL aliquots at time points of 0, 15, 30, 60, 90 and 120 minutes. The aliquots were then mixed with 6 volumes (150 μL) of acetonitrile containing internal standard, IS (100 nM alprazolam, 200 nM caffeine and 100 nM tolbutamide) to terminate the reaction. The mixture was vortex for 5 minutes. Samples were centrifuged for 45 minutes at 3,220 g. An aliquot of 100 μL of the supernatant was diluted by 100 μL ultra-pure water, and the mixture was used for LC/MS/MS analysis. All incubations were performed in duplicate.
Data Analysis: All calculations were carried out using Microsoft Excel. Peak areas were determined from extracted ion chromatograms. In vitro half-life (t1/2) of parent compound was determined by regression analysis of the percent parent disappearance vs. time curve.
The in vitro half-life (in vitro t1/2) was determined from the slope value:
Conversion of the in vitro t1/2 (in min) into the in vitro intrinsic clearance (in vitro CLint, in μL/min/1×10^6 cells) was done using the following equation (mean of duplicate determinations):
V=incubation volume(0.2 mL);
N=number of hepatocytes per well(0.1×10^6 cells).
“+++” indicates a CLint value less than 20 mL/min/Kg, “++” indicates a CLint between 20 and 50 mL/min/Kg, and “+” indicates an CLint above 50 mL/min/Kg.

IC50 (AHR) [nM]	Structure (SMILES)	Rat hepatocyte clearance [1]	Suspension Rat heps Clint (% Qh) ([1]; suspension rat hepatocytes)
< 100	C[C@@H](CO)n1cnc2c(-c3cccc(F)c3)nc(-c3ccc(C(F)(F)F)cn3)cc2c1=O [Compound 47, (S)-8-(3-fluorophenyl)-3-(1-hydroxypropan-2-yl)-6-(5-(trifluoromethyl)pyridin-2-yl)pyrido[3,4-d]pyrimidin-4(3H)-one]	+++ (“+++” indicates a CLint value less than 20 mL/min/Kg)	
< 100	Cn1cc(-c2nc(-c3ccc(C(F)(F)F)nc3)cc3c(=O)n(CC(C)(C)O)cnc23)cn1 [Compound 60]	+++ (“+++” indicates a CLint value less than 20 mL/min/Kg)	
< 100	C[C@@H](CO)n1cnc2c(-c3cccc(F)c3)nc(-c3ccc(C(F)(F)F)nc3)cc2c1=O [Compound 8]	++ (“++” indicates a CLint between 20 and 50 mL/min/Kg)	
< 100	CC(C)(O)Cn1cnc2c(-c3cccnc3)nc(-c3ccc(Cl)cc3)cc2c1=O [Compound 18]	+++ (“+++” indicates a CLint value less than 20 mL/min/Kg)	
< 100	O=c1c2cc(-c3ccc(Cl)cc3)nc(-c3cccnc3)c2ncn1C[C@@H](O)C(F)(F)F (single isomer, unassigned) [185 enantiomer 1]	++ (“++” indicates a CLint between 20 and 50 mL/min/Kg)	
< 100	C[C@@H](n1cnc2c(-c3cnn(C)c3)nc(-c3ccc(Cl)cc3)cc2c1=O)C(C)(C)O [Compound 31]	++ (“++” indicates a CLint between 20 and 50 mL/min/Kg)	
< 100	C[C@@H](CO)n1cnc2c(-c3cnn(C)c3)nc(-c3ccc(Cl)cc3)cc2c1=O [Compound 27]	+++ (“+++” indicates a CLint value less than 20 mL/min/Kg)	
< 100	Cc1ccc(-c2cc3c(=O)n([C@@H](C)CO)cnc3c(-c3cccnc3)n2)cc1 [Compound 17, (S)-3-(1-hydroxypropan-2-yl)-8-(pyridin-3-yl)-6-(p-tolyl)pyrido[3,4-d]pyrimidin-4(3H)-one]	+ (“+” indicates an CLint above 50 mL/min/Kg)	
< 100	CC(C)(O)Cn1cnc2c(-c3cccnc3)nc(-c3ccc(C(F)(F)F)cn3)cc2c1=O [Compound 105]	+++ (“+++” indicates a CLint value less than 20 mL/min/Kg)	
< 100	C[C@@H](CO)n1cnc2c(-c3cccnc3)nc(-c3ccc(OC(F)(F)F)cc3)cc2c1=O [Compound 22]	++ (“++” indicates a CLint between 20 and 50 mL/min/Kg)	
< 100	C[C@@H](CO)n1cnc2c(-c3cccnc3)nc(-c3ccc(C4CC4)nc3)cc2c1=O [Compound 74]	++ (“++” indicates a CLint between 20 and 50 mL/min/Kg)	

Structure (SMILES)	IC50 (AHR) [nM]	Rat hepatocyte clearance [1]	Suspension Rat heps Clint (% Qh) ([1]; suspension rat hepatocytes)
CC(C)(O)Cn1cnc2c(-c3cccnc3)nc(-c3ccc(C(F)(F)F)nc3)cc2c1=O [Compound 9]	< 100	+++ (“+++” indicates a CLint value less than 20 mL/min/Kg)	< 24
C[C@@H](CO)n1cnc2c(-c3cccc(F)c3)nc(-c3ccc(Cl)cc3)cc2c1=O [Compound 7]	< 100	++ (“++” indicates a CLint between 20 and 50 mL/min/Kg)	
